Data reported in PubChem BioAssay (NCI).
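Step 1: Grow cells in 96-well plates. Step 2: Expose to compound for 48 hours at 5 concentrations. Step 3: Interpolate endpoints linearly; if unreached, use highest concentration. Definition used: TGI = concentration required for complete inhibition of growth.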

Experiments:
Experiment in all cases: NCI tumour cell line growth inhibition, 48 h
[1] = system: U251 CNS
[2] = system: EKVX NSCLC
[3] = system: RXF 393 renal
[4] = system: HL-60(TB) leukemia
[5] = system: LOX IMVI melanoma
[6] = system: NCI-H522 lung
[7] = system: OVCAR-5 ovarian
[8] = system: SNB-19 CNS
[9] = system: RPMI-8226 leukemia
[10] = system: COLO 205 colon

Structure (SMILES)	TGI [1] [µM]	TGI [2] [µM]	TGI [3] [µM]	TGI [4] [µM]	TGI [5] [µM]	TGI [6] [µM]	TGI [7] [µM]	TGI [8] [µM]	TGI [9] [µM]	TGI [10] [µM]
CCCCc1ccc(Nc2ncc3[nH]cnc3n2)cc1	60.4	98.1	49.7	> 100	37.6	55	> 100	44.4	71.2	36.7
COC(=O)/C=C1\CCC(C)(C(=O)NS(=O)(=O)c2ccc(C)cc2)C1(C)C (centres undefined)	> 100	> 100	> 100	> 100	> 100	> 100	> 100	> 100	> 100	> 100
Nc1ccccc1N/C=C\C(=O)C(Cl)(Cl)Cl	56.9	30.5	45.2	85.3	29.7	> 100	45.6	> 100	38	52.7
COc1ccc2c(c1)N=C1CSC(c3ccccc3Cl)N1C2 (centres undefined)	66.8	22	25.4	4.76	23	51.4	28.2	> 100	35.3	42.4
O=C1Nc2cc([N+](=O)[O-])ccc2NC1/C(=N\Nc1ccccc1)C(O)c1cccc([N+](=O)[O-])c1 (centres undefined)	> 100	> 100	> 100	> 100	> 100	> 100	> 100	> 100	> 100	> 100
COC(=O)n1c(=O)n(-c2ccccc2)c(=O)n1C(=O)OC	> 100	> 100	> 100	> 100	> 100	> 100	> 100	> 100	> 100	> 100
CN(C)CCNC(=O)c1cccc2nc3c(nc12)-c1ccccc1C3=O	45.6	48.6	34.4	22.7	12.7	30.7	90.1	47.6	33.6	58.5
COc1ccc(-c2c(N)n(-c3cccc(C(=O)O)c3)c(=O)c3cc([N+](=O)[O-])ccc23)cc1	> 100	> 100	> 100	> 100	> 100	> 100	> 100	> 100	> 100	
Cc1cc(S(=O)(=O)O)c(NC(=O)C(=O)C2C=CCS2(=O)=O)cc1Cl (centres undefined)	> 100	> 100	> 100	> 100	> 100	> 100	> 100	> 100	> 100	> 100
Cc1nc2ccc(S(=O)(=O)O)cc2c(=O)n1-c1ccc(C(=O)NN2C(=O)C(Cl)C2c2ccccc2O)cc1 (centres undefined)	> 100	> 100	> 100	> 100	> 100	> 100	> 100	> 100	> 100	> 100
